Results: US12496329B2, “Methods of using and compositions including an incretin analog” (Eli Lilly and Company, priority 2021, dated 2025)

Assay: SAD study: safety and tolerability
Type: in vivo, human
Description: Studies are designed to evaluate the safety, tolerability, pharmacodynamics (PD) and pharmacokinetics (PK) of the GGG tri-receptor agonist (SEQ ID NO:1) in healthy individuals. The SAD study is a randomized, investigator- and participant-blind, placebo-controlled, single-dose, single-site, dose-escalation study conducted in healthy individuals (e.g., overtly healthy females or males aged 21-65 years, inclusive, with a BMI 19-40 kg/m^2 at screening).
Six dose levels of the GGG tri-receptor agonist-0.1, 0.3, 1.0, 3.0, 4.5 and 6.0 mg—are explored in the SAD study, as well as placebo (i.e., 0.0 mg). A dose escalation of the GGG tri-receptor agonist is assessed in cohorts of healthy individuals (e.g., 6 individuals receiving the GGG tri-receptor agonist and 2 individuals receiving placebo per cohort). Staggered dosing is performed for each cohort, in which a new higher dose of the GGG tri-receptor agonist is administered. All injections are administered into the SC tissue of an abdominal wall, in a right or left lower quadrant.
Safety analyses: Safety parameters assessed during the study included: AEs (with special interest to GI AEs such as nausea, vomiting, and diarrhea), laboratory parameters (with special attention to hepatic and pancreatic biomarkers), physical examinations/medical assessments, vital signs and ECGs, BW, injection site reactions, hypersensitivity reactions, and glucose monitoring (with special attention to hypoglycemia).

In the case of `CC[C@H](C)[C@H](NC(=O)[C@H](Cc1ccccc1)NC(=O)[C@H](C)NC(=O)C(C)(C)NC(=O)[C@H](CCC(N)=O)NC(=O)[C@H](C)NC(=O)[C@H](CCCCNC(=O)COCCOCCNC(=O)CC[C@H](NC(=O)CCCCCCCCCCCCCCCCCCC(=O)O)C(=O)O)NC(=O)[C@H](CCCCN)NC(=O)[C@H](CC(=O)O)NC(=O)[C@H](CC(C)C)NC(=O)[C@](C)(CC(C)C)NC(=O)[C@@H](NC(=O)[C@H](CO)NC(=O)[C@H](Cc1ccc(O)cc1)NC(=O)[C@H](CC(=O)O)NC(=O)[C@H](CO)NC(=O)[C@@H](NC(=O)[C@H](Cc1ccccc1)NC(=O)[C@@H](NC(=O)CNC(=O)[C@H](CCC(N)=O)NC(=O)C(C)(C)NC(=O)[C@@H](N)Cc1ccc(O)cc1)[C@@H](C)O)[C@@H](C)O)[C@@H](C)CC)C(=O)N[C@@H](CCC(=O)O)C(=O)N[C@@H](Cc1ccc(O)cc1)C(=O)N[C@@H](CC(C)C)C(=O)N[C@@H](CC(C)C)C(=O)N[C@@H](CCC(=O)O)C(=O)NCC(=O)NCC(=O)N1CCC[C@H]1C(=O)N[C@@H](CO)C(=O)N[C@@H](CO)C(=O)NCC(=O)N[C@@H](C)C(=O)N1CCC[C@H]1C(=O)N1CCC[C@H]1C(=O)N1CCC[C@H]1C(=O)N[C@@H](CO)C(N)=O` [GGG tri-receptor agonist, Y-Aib-QGTFTSDYSI-αMeL-LDKK((2-[2-(2-amino-ethoxy)-ethoxy]-acetyl)-(γGlu)-CO-(CH2)18-CO2H)AQ-Aib-AFIEYLLEGGPSSGAPPPS-NH2], the “incidence of GI AEs (emesis, nausea)” value (Phase 1 dosing study, 6.0 mg or higher doses) is reported as “higher-than-expected incidence of GI AEs”, the “individuals reporting TEAEs” value (single SC dose) is reported as 97.1% and the injection-site reactions (single SC dose) is reported as “No injection-site reactions”. For the same compound, the “individuals reporting TEAEs related to study treatment” value (single SC dose, 20 individuals) was 57.1%, the hypoglycemic episodes (single SC dose, all asymptomatic) was “low across all groups” and the “severity of AEs” value (single SC dose, dose-dependent) was “mild to moderate in severity”. For the same compound, the pulse rate (single SC dose, returned to baseline or near-baseline by Day 29) was “Dose-related increases in pulse rate”, the tolerability (single SC doses of 0.1, 0.3, 1.0 and 3.0 mg) was “well tolerated” and the “incidence of GI events (vomiting, abdominal distension, nausea)” value (single SC doses of 4.5 and 6.0 mg) was “increased incidence of GI events”.
